Measurements: PubChem BioAssay (NCI)
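The concentration for 50% growth inhibition is given as GI50. TGI is the concentration that stops growth completely.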

What was measured:
Assay in all cases: NCI anticancer screen, dose series, 384-well format
786-0 renal = test system: 786-0 renal
A498 renal = test system: A498 renal
A549 NSCLC = test system: A549 NSCLC
ACHN renal = test system: ACHN renal
BT-549 breast = test system: BT-549 breast
CAKI-1 renal = test system: CAKI-1 renal
CCRF-CEM leukemia = test system: CCRF-CEM leukemia
COLO 205 colon = test system: COLO 205 colon
DU-145 prostate = test system: DU-145 prostate
EKVX NSCLC = test system: EKVX NSCLC
HCC-2998 colon = test system: HCC-2998 colon
HCT-15 colon = test system: HCT-15 colon
HL-60(TB) leukemia = test system: HL-60(TB) leukemia
HOP-62 NSCLC = test system: HOP-62 NSCLC
HOP-92 NSCLC = test system: HOP-92 NSCLC
HS 578T breast = test system: HS 578T breast
HT29 colon = test system: HT29 colon
IGROV1 ovarian = test system: IGROV1 ovarian
KM12 colon = test system: KM12 colon
M14 melanoma = test system: M14 melanoma
MALME-3M melanoma = test system: MALME-3M melanoma
MCF7 breast = test system: MCF7 breast
MDA-MB-231 breast = test system: MDA-MB-231 breast
MDA-MB-435 melanoma = test system: MDA-MB-435 melanoma
MDA-MB-468 breast = test system: MDA-MB-468 breast
MOLT-4 leukemia = test system: MOLT-4 leukemia
NCI-H226 lung = test system: NCI-H226 lung
NCI-H23 lung = test system: NCI-H23 lung
NCI-H322M lung = test system: NCI-H322M lung
NCI-H460 NSCLC = test system: NCI-H460 NSCLC
NCI-H522 lung = test system: NCI-H522 lung
NCI/ADR-RES ovarian = test system: NCI/ADR-RES ovarian
OVCAR-3 ovarian = test system: OVCAR-3 ovarian
OVCAR-4 ovarian = test system: OVCAR-4 ovarian
OVCAR-5 ovarian = test system: OVCAR-5 ovarian
OVCAR-8 ovarian = test system: OVCAR-8 ovarian
PC-3 prostate = test system: PC-3 prostate
RPMI-8226 leukemia = test system: RPMI-8226 leukemia
RXF 393 renal = test system: RXF 393 renal
SF-268 CNS = test system: SF-268 CNS
SF-295 CNS = test system: SF-295 CNS
SF-539 CNS = test system: SF-539 CNS
SK-MEL-2 melanoma = test system: SK-MEL-2 melanoma
SK-MEL-28 melanoma = test system: SK-MEL-28 melanoma
SK-MEL-5 melanoma = test system: SK-MEL-5 melanoma
SK-OV-3 ovarian = test system: SK-OV-3 ovarian
SN12C renal = test system: SN12C renal
SNB-19 CNS = test system: SNB-19 CNS
SR leukemia = test system: SR leukemia
SW-620 colon = test system: SW-620 colon
T-47D breast = test system: T-47D breast
TK-10 renal = test system: TK-10 renal
U251 glioblastoma = test system: U251 glioblastoma
UACC-257 melanoma = test system: UACC-257 melanoma
UACC-62 melanoma = test system: UACC-62 melanoma

C[C@]1(c2nc3c(C(N)=O)cccc3[nH]2)CCCN1
GI50 (786-0 renal): > 100 µM | TGI (786-0 renal): > 100 µM | GI50 (A498 renal): > 100 µM | TGI (A498 renal): > 100 µM | GI50 (A549 NSCLC): > 100 µM | TGI (A549 NSCLC): > 100 µM | GI50 (ACHN renal): > 100 µM | TGI (ACHN renal): > 100 µM | GI50 (BT-549 breast): > 100 µM | TGI (BT-549 breast): > 100 µM | GI50 (CAKI-1 renal): > 100 µM | TGI (CAKI-1 renal): > 100 µM | GI50 (CCRF-CEM leukemia): > 100 µM | TGI (CCRF-CEM leukemia): > 100 µM | GI50 (COLO 205 colon): > 100 µM | TGI (COLO 205 colon): > 100 µM | GI50 (DU-145 prostate): > 100 µM | TGI (DU-145 prostate): > 100 µM | GI50 (EKVX NSCLC): > 100 µM | TGI (EKVX NSCLC): > 100 µM | GI50 (HCC-2998 colon): 26.6 µM | TGI (HCC-2998 colon): > 100 µM | GI50 (HCT-15 colon): > 100 µM | TGI (HCT-15 colon): > 100 µM | GI50 (HL-60(TB) leukemia): > 100 µM | TGI (HL-60(TB) leukemia): > 100 µM | GI50 (HOP-62 NSCLC): 40.7 µM | TGI (HOP-62 NSCLC): > 100 µM | GI50 (HOP-92 NSCLC): > 100 µM | TGI (HOP-92 NSCLC): > 100 µM | GI50 (HS 578T breast): > 100 µM | TGI (HS 578T breast): > 100 µM | GI50 (HT29 colon): > 100 µM | TGI (HT29 colon): > 100 µM | GI50 (IGROV1 ovarian): > 100 µM | TGI (IGROV1 ovarian): > 100 µM | GI50 (KM12 colon): > 100 µM | TGI (KM12 colon): > 100 µM | GI50 (M14 melanoma): > 100 µM | TGI (M14 melanoma): > 100 µM | GI50 (MALME-3M melanoma): > 100 µM | TGI (MALME-3M melanoma): > 100 µM | GI50 (MCF7 breast): 72.9 µM | TGI (MCF7 breast): > 100 µM | GI50 (MDA-MB-231 breast): > 100 µM | TGI (MDA-MB-231 breast): > 100 µM | GI50 (MDA-MB-435 melanoma): > 100 µM | TGI (MDA-MB-435 melanoma): > 100 µM | GI50 (MDA-MB-468 breast): 16.2 µM | TGI (MDA-MB-468 breast): > 100 µM | GI50 (MOLT-4 leukemia): 29.6 µM | TGI (MOLT-4 leukemia): > 100 µM | GI50 (NCI-H226 lung): 90.3 µM | TGI (NCI-H226 lung): > 100 µM | GI50 (NCI-H23 lung): 78.7 µM | TGI (NCI-H23 lung): > 100 µM | GI50 (NCI-H322M lung): > 100 µM | TGI (NCI-H322M lung): > 100 µM | GI50 (NCI-H460 NSCLC): 28.7 µM | TGI (NCI-H460 NSCLC): > 100 µM | GI50 (NCI-H522 lung): > 100 µM | TGI (NCI-H522 lung): > 100 µM | GI50 (NCI/ADR-RES ovarian): > 100 µM | TGI (NCI/ADR-RES ovarian): > 100 µM | GI50 (OVCAR-3 ovarian): > 100 µM | TGI (OVCAR-3 ovarian): > 100 µM | GI50 (OVCAR-4 ovarian): > 100 µM | TGI (OVCAR-4 ovarian): > 100 µM | GI50 (OVCAR-5 ovarian): 84.4 µM | TGI (OVCAR-5 ovarian): > 100 µM | GI50 (OVCAR-8 ovarian): > 100 µM | TGI (OVCAR-8 ovarian): > 100 µM | GI50 (PC-3 prostate): > 100 µM | TGI (PC-3 prostate): > 100 µM | GI50 (RPMI-8226 leukemia): > 100 µM | TGI (RPMI-8226 leukemia): > 100 µM | GI50 (RXF 393 renal): > 100 µM | TGI (RXF 393 renal): > 100 µM | GI50 (SF-268 CNS): > 100 µM | TGI (SF-268 CNS): > 100 µM | GI50 (SF-295 CNS): 38.9 µM | TGI (SF-295 CNS): > 100 µM | GI50 (SF-539 CNS): > 100 µM | TGI (SF-539 CNS): > 100 µM | GI50 (SK-MEL-2 melanoma): > 100 µM | TGI (SK-MEL-2 melanoma): > 100 µM | GI50 (SK-MEL-28 melanoma): > 100 µM | TGI (SK-MEL-28 melanoma): > 100 µM | GI50 (SK-MEL-5 melanoma): > 100 µM | TGI (SK-MEL-5 melanoma): > 100 µM | GI50 (SK-OV-3 ovarian): > 100 µM | TGI (SK-OV-3 ovarian): > 100 µM | GI50 (SN12C renal): 85.2 µM | TGI (SN12C renal): > 100 µM | GI50 (SNB-19 CNS): > 100 µM | TGI (SNB-19 CNS): > 100 µM | GI50 (SR leukemia): 14.5 µM | TGI (SR leukemia): 28.3 µM | GI50 (SW-620 colon): > 100 µM | TGI (SW-620 colon): > 100 µM | GI50 (T-47D breast): > 100 µM | TGI (T-47D breast): > 100 µM | GI50 (TK-10 renal): > 100 µM | TGI (TK-10 renal): > 100 µM | GI50 (U251 glioblastoma): > 100 µM | TGI (U251 glioblastoma): > 100 µM | GI50 (UACC-257 melanoma): > 100 µM | TGI (UACC-257 melanoma): > 100 µM | GI50 (UACC-62 melanoma): 95.6 µM | TGI (UACC-62 melanoma): > 100 µM
